Values of other authors as cited in patent US20210077498A1, “TRANSIENT PROTECTION OF HEMATOPOIETIC STEM AND PROGENITOR CELLS AGAINST IONIZING RADIATION” (G1 Therapeutics, Inc., priority 2015, published 2021).

Legend:
[1] = test system: mice exposed to peri-lethal and lethal TBI; settings: compared to untreated controls; cited from earlier work
[2] = in vivo; cited from earlier work
[3] = test system: CDK4/6-dependent cell lines; settings: cited from earlier work
[4] = test system: CDK4/6 independent Rb-null melanoma cell line A2058; settings: cited from earlier work

## O=C1NC(=O)c2c1c1c3ccccc3[nH]c1c1[nH]c3cc(Br)ccc3c21 [Formula 2BrIC, 2-bromo-12,13-dihydro-5H-indolo[2,3-a]pyrrolo[3,4]carbazole-5,6-dione]
[1]
  HSPC protection and survival after TBI: protect HSPCs and improve survival of mice
[2]
  bioavailability: restricted bioavailability
[3]
  IR protection: exhibited IR protective characteristics
[4]
  G1 arrest: did not G1 arrest
  protection from IR exposure: failed to protect
